Test results published in patent publication US20080242716A1, “Ion Channel Modulators” (priority 2004, published 2008).

System: calcium channel (e.g., L-type, N-type, etc.) currents
Assay: HEK assay, whole-cell voltage clamp in transiently transfected HEK-293T/17 cells
Assay type: cell-based
Details: whole-cell patch clamp, steady-state concentration-response
Protocol: HEK-293T/17 cells are transiently transfected in a similar manner as described in FuGENE 6 Package Insert Version 7, April 2002, Roche Applied Science, Indianapolis, Ind. The cells are plated at 2.5×10^5 cells in 2 mL in a 6-well plate in incubator for one night and achieve a 30˜40% confluence. In a small sterile tube, add sufficient serum-free medium as diluent for FuGENE Transfection Reagent (Roche Applied Science, Indianapolis, Ind.), to a total volume of 100 μL. Add 3 μL of FuGENE 6 Reagent directly into this medium. The mixture is tapped gently to mix. 2 μg of DNA solution (0.8-2.0 μg/μL) is added to the prediluted FuGENE 6 Reagent from above. The DNA/Fugene 6 mixture is gently pipeted to mix the contents and incubated for about 15 minutes at room temperature. The complex mixture is then added to the HEK-293T/17 cells, distributing it around the well, and swirled to ensure even dispersal. The cells are returned to the incubator for 24 hrs. The transfected cells are then replated at density 2.5×10^5 in a 35 mm dish with 5 glass coverslips and grow in low serum(1%) media for 24 hrs. Coverslips with isolated cells are then transferred into chamber and calcium channel (e.g., L-type, N-type, etc.) current or other currents for counter screening are recorded from the transiently transfected HBEK-293T/17 cells. […]

IC50: 0.252 µM
Compound: Fc1ccc(Cc2nc(Cc3nc4ccccc4[nH]3)cn2-c2ccc(Cl)cc2)cc1 [Compound 2, 2-[1-(4-Chloro-phenyl)-2-(4-fluoro-benzyl)-1H-imidazol-4-ylmethyl]-1H-benzoimidazole]
